“And” between values parts separate entries of the source, which are not always exact repeats. Identical values can stand only once.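 Grown in 96-well plates, cells were treated for 48 hours with each compound at five concentrations. Insufficient inhibition: endpoint recorded as highest concentration tested. Here, GI50 denotes the concentration required for 50% inhibition of growth. TGI is the concentration that stops growth completely.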
Assays:
Test in all cases: NCI-60 cell line screen, 48 h
UACC-257 melanoma = system: UACC-257 melanoma
SK-OV-3 ovarian = system: SK-OV-3 ovarian
RPMI-8226 leukemia = system: RPMI-8226 leukemia
HCT-15 colon = system: HCT-15 colon
HCT-116 colon = system: HCT-116 colon
A498 renal = system: A498 renal
MALME-3M melanoma = system: MALME-3M melanoma
A549 NSCLC = system: A549 NSCLC
SF-268 CNS = system: SF-268 CNS
OVCAR-8 ovarian = system: OVCAR-8 ovarian

| SMILES | TGI (UACC-257 melanoma) | TGI (SK-OV-3 ovarian) | TGI (RPMI-8226 leukemia) | TGI (HCT-15 colon) | TGI (HCT-116 colon) | TGI (A498 renal) | TGI (MALME-3M melanoma) | TGI (A549 NSCLC) | TGI (SF-268 CNS) | TGI (OVCAR-8 ovarian) | GI50 (UACC-257 melanoma) | GI50 (SK-OV-3 ovarian) | GI50 (RPMI-8226 leukemia) | GI50 (HCT-15 colon) | GI50 (HCT-116 colon) | GI50 (A498 renal) | GI50 (MALME-3M melanoma) | GI50 (A549 NSCLC) | GI50 (SF-268 CNS) | GI50 (OVCAR-8 ovarian) |
| --- | --- | --- | --- | --- | --- | --- | --- | --- | --- | --- | --- | --- | --- | --- | --- | --- | --- | --- | --- | --- |
| Cc1ccc2nc(NC(=O)/C(=N\NC(=S)NN)C3C(=O)NC(=S)NC3=O)sc2c1 | > 100 µM | > 100 µM | > 100 µM | > 100 µM | > 100 µM | > 100 µM | > 100 µM | > 100 µM | > 100 µM | > 100 µM |  |  |  |  |  |  |  |  |  |  |
| C/C(=N/N=C(N)N)c1ccc(NC(=O)Nc2ccc(/C(C)=N/N=C(N)N)cc2)cc1 | > 89.6 µM | > 82.3 µM | 34.2 µM | > 77.6 µM | > 100 µM | 69.9 µM | 46.9 µM | 54.8 µM | > 71.2 µM | > 78.8 µM | 31.1 µM | 36.3 µM | 3.77 µM | 25.5 µM | 28 µM | 23.5 µM | 16.5 µM | 19.4 µM | 17.2 µM | 21.8 µM |
| Cc1nccc2c3ccc(OCc4cn(-c5ccc(Cl)cc5)nn4)cc3n(CC(C)C)c12 | 16.8 µM | 16.5 µM | 3.95 µM | 21.5 µM | 5.65 µM | 9.32 µM | 13 µM | 13 µM | > 33.3 µM | 16.2 µM | 4.62 µM | 4.25 µM | 1.09 µM | 1.28 µM | 1.3 µM | 1.39 µM | 4.62 µM | 2.29 µM | 11.2 µM | 2.73 µM |
| O=C1C=CC2(C=C1)C[C@H](NC(=O)OCc1ccccc1)C(=O)O2 | 33.2 µM | > 92.3 µM | 17.2 µM | 27 µM | 40.3 µM | > 100 µM | 26.6 µM | > 78.5 µM | 32.3 µM | 31.4 µM |  |  |  |  |  |  |  |  |  |  |
| CCN(CC)CCNc1ccc2nc(C)n3c4ccc(O)cc4c(=O)c1c23 | 21.2 µM | 12.6 µM | 6.18 µM | 5.83 µM | 10.3 µM | 13.3 µM | 16.4 µM | 1.25 µM | 12 µM | 3.23 µM |  |  |  |  |  |  |  |  |  |  |
| Nc1ncnc2c1ccn2[C@@H]1O[C@H]([C@H](O)c2ccc(Cl)c(F)c2)[C@@H](O)[C@H]1O | > 100 µM | > 100 µM | > 100 µM | > 100 µM | > 100 µM | > 100 µM | > 100 µM | > 100 µM | > 100 µM | > 100 µM | > 100 µM | > 100 µM | > 100 µM | > 100 µM | > 100 µM | 52.4 µM | > 100 µM | > 100 µM | > 100 µM | > 100 µM |
| Cc1ccc(NC(=O)OCC(COc2ccc(Cl)cc2Cl)OC(=O)Nc2ccc(C)cc2)cc1 (stereo not drawn) | > 100 µM | > 100 µM | > 100 µM | > 100 µM | > 100 µM | > 100 µM | > 100 µM | > 100 µM | > 100 µM | 39.3 µM |  |  |  |  |  |  |  |  |  |  |
| C[CH2][Sn]([CH2]C)([O]C(=O)c1ccc(OC)c(OC)c1OC)[O]C(=O)c1ccc(OC)c(OC)c1OC | > 100 µM | > 100 µM | 72.2 µM | > 100 µM | > 100 µM | 44 µM | 50.6 µM | > 100 µM | > 46.4 µM | > 100 µM | > 78.9 µM | > 100 µM | 22.7 µM | 61.2 µM | > 100 µM | 16.3 µM | 21.2 µM | > 100 µM | 28 µM | > 100 µM |
| COc1cccc(NC(=O)C(=O)C2C=CCS2(=O)=O)c1 (stereo not drawn) | > 100 µM | > 100 µM | > 100 µM | > 100 µM | > 100 µM | > 100 µM | > 100 µM | > 100 µM | > 100 µM | > 100 µM |  |  |  |  |  |  |  |  |  |  |
| COCc1c(-c2ccc(NC(=O)Nc3cc(C(F)(F)F)ccc3F)c(F)c2)c2c(N)ncnn2c1CN1CCOCC1 | > 10 µM | 6.88 µM | 7.85 µM | > 10 µM | > 10 µM | 0.248 µM | > 10 µM | > 10 µM | 5.2 µM | > 10 µM | 3.43 µM | 1.61 µM | 1.91 µM | 1.74 µM | 1.7 µM | 0.0166 µM | 2.72 µM | 2.53 µM | 1.13 µM | 2.66 µM |
| N#CC1C(=O)NC(c2ccccc2[N+](=O)[O-])c2sc3c(F)cccc3c21 (stereo not drawn) | 4.72 µM | 62.3 µM | > 60.3 µM | 61.2 µM | 11.9 µM | 2.06 µM | 63.7 µM | 36.1 µM | 56.9 µM | 80.9 µM | 0.961 µM | 10.1 µM | 5.67 µM | 10.4 µM | 0.138 µM | 0.561 µM | 19.5 µM | 1.72 µM | 15.8 µM | 9.59 µM |
| CCOC(=O)C(=O)Nc1ccccc1C(C)C | > 100 µM | > 100 µM | > 100 µM | > 100 µM | > 100 µM | > 100 µM | > 100 µM | > 100 µM | > 100 µM | > 100 µM |  |  |  |  |  |  |  |  |  |  |
| CCN(Cc1ccc(F)cc1)c1ccc(CO)c(OC)c1 | 42.7 µM | > 94.6 µM | 50.5 µM | 41 µM | 28.2 µM | 1.37 µM | 14.3 µM | > 100 µM | > 65.4 µM | > 64.5 µM | 8.85 µM | 15.3 µM | 15.9 µM | 14.6 µM | 10 µM | 0.331 µM | 3.21 µM | 40.1 µM | 22.1 µM | 19.2 µM |
| Cc1ccc(OCC2OC(n3cnc4c(Br)nc(Br)nc43)CC2Oc2ccc(C)cc2)cc1 (stereo not drawn) | 20.4 µM and 21.3 µM | 21.4 µM and > 54.2 µM | 28.7 µM and > 71.3 µM | 3.24 µM and 4.73 µM | 14.5 µM and 3.6 µM | 20.6 µM and 41 µM | 16.3 µM and 21.6 µM | 30 µM and > 41.9 µM | 25.4 µM | 42.7 µM and 14.3 µM | 10.3 µM | 11.2 µM | 7.52 µM | 1.45 µM | 5.29 µM | 22.9 µM | 6.5 µM |  |  | 18.2 µM |

Source: PubChem BioAssay (NCI)
